Reference: ChEMBL document CHEMBL1201862, “PubChem BioAssay data set” (2004)
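The compound was tested at five concentrations on cells cultured in 96-well plates, with a 48-hour exposure period. GI50 is the concentration that inhibits growth by half.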 Calls of active or inactive are those of the source. Rule as the data show it: active = GI50 up to about 1.1 µM and inactive = higher.

Columns and labels:
Experiment in all cases: NCI anticancer screen, dose series, 48 h
HCT-15 = test system: HCT-15
M14 = test system: M14
SR = test system: SR
RPMI-8226 = test system: RPMI-8226
SNB-75 = test system: SNB-75
SF-268 = test system: SF-268
MCF7 = test system: MCF7
A498 = test system: A498
SNB-19 = test system: SNB-19
CAKI-1 = test system: CAKI-1
TK-10 = test system: TK-10
HOP-92 = test system: HOP-92
Hs-578T = test system: Hs-578T
NCI-H226 = test system: NCI-H226
SK-MEL-2 = test system: SK-MEL-2
MOLT-4 = test system: MOLT-4
K562 = test system: K562
HOP-62 = test system: HOP-62
SF-295 = test system: SF-295
NCI/ADR-RES = test system: NCI/ADR-RES

Structure (SMILES)	GI50 (HCT-15) [µM]	GI50 (M14)	GI50 (SR)	GI50 (RPMI-8226)	GI50 (SNB-75)	GI50 (SF-268)	GI50 (MCF7)	GI50 (A498)	GI50 (SNB-19)	GI50 (CAKI-1)	GI50 (TK-10)	GI50 (HOP-92)	GI50 (Hs-578T)	GI50 (NCI-H226)	GI50 (SK-MEL-2)	GI50 (MOLT-4)	GI50 (K562)	GI50 (HOP-62)	GI50 (SF-295)	GI50 (NCI/ADR-RES)
C=CCn1c2c(c3ccccc3c1=O)C(=O)c1ccccc1-2	> 100	> 100 µM (inactive)	3.97 µM (inactive)	> 25.6 µM (inactive)	> 81.5 µM (inactive)	> 68.1 µM (inactive)	> 100 µM (inactive)	> 100 µM (inactive)	73.8 µM (inactive)	> 100 µM (inactive)	> 50.6 µM (inactive)	> 100 µM (inactive)	> 60.3 µM (inactive)	> 100 µM (inactive)	> 100 µM (inactive)	3.4 µM (inactive)	> 23 µM (inactive)	31.4 µM (inactive)	> 77.8 µM (inactive)	> 100 µM (inactive)
C/C(=N\NC(=S)N1CCN(c2ccccn2)CC1)c1cccc2cccnc12	3.68	5.15 µM (inactive)	0.859 µM (active)	2.29 µM (inactive)	13.1 µM (inactive)	5.08 µM (inactive)	3.6 µM (inactive)	12 µM (inactive)	5.78 µM (inactive)	6.32 µM (inactive)	6.31 µM (inactive)	3.98 µM (inactive)	9.08 µM (inactive)	5.77 µM (inactive)	2.51 µM (inactive)	3.21 µM (inactive)	2.46 µM (inactive)	6.05 µM (inactive)	3.37 µM (inactive)	3.35 µM (inactive)
COC(=O)c1ccccc1/C=C1\Cc2ccc(C)c(C)c2C1=O	> 100	> 100 µM (inactive)	> 100 µM (inactive)	> 100 µM (inactive)	35.4 µM (inactive)	54.5 µM (inactive)	> 100 µM (inactive)	> 100 µM (inactive)	44.5 µM (inactive)	> 100 µM (inactive)	> 100 µM (inactive)	34.2 µM (inactive)	92.9 µM (inactive)	> 100 µM (inactive)	> 100 µM (inactive)	> 100 µM (inactive)	> 100 µM (inactive)	59.8 µM (inactive)	77.8 µM (inactive)	> 100 µM (inactive)
COc1cccc2c1C(=O)C1=C(C2=O)C(O)CC(C)(C)O1 (stereo not given)	38.6	54.6 µM (inactive)	16.3 µM (inactive)	22.3 µM (inactive)	> 100 µM (inactive)	55.5 µM (inactive)	36.6 µM (inactive)	> 100 µM (inactive)	76.7 µM (inactive)	50.7 µM (inactive)	> 100 µM (inactive)	53.2 µM (inactive)	> 100 µM (inactive)	> 100 µM (inactive)	36.2 µM (inactive)	29 µM (inactive)	21 µM (inactive)	> 100 µM (inactive)	70.3 µM (inactive)	28.7 µM (inactive)
[N-]=[N+]=NCC1OC(n2cnc3c(N)ncnc32)C2OC12 (stereo not given)	> 100	> 100 µM (inactive)	> 100 µM (inactive)	> 100 µM (inactive)	> 100 µM (inactive)	> 100 µM (inactive)	> 100 µM (inactive)	> 100 µM (inactive)	> 100 µM (inactive)	> 100 µM (inactive)	> 100 µM (inactive)	> 100 µM (inactive)	> 100 µM (inactive)	> 100 µM (inactive)	> 100 µM (inactive)	> 100 µM (inactive)	> 100 µM (inactive)	> 100 µM (inactive)	> 100 µM (inactive)	> 100 µM (inactive)
NCCCC(N)C(=O)O (stereo not given)	> 100	> 100 µM (inactive)	> 100 µM (inactive)	> 100 µM (inactive)	> 100 µM (inactive)	> 100 µM (inactive)	> 100 µM (inactive)	> 100 µM (inactive)	> 100 µM (inactive)	> 100 µM (inactive)	> 100 µM (inactive)	> 100 µM (inactive)	> 100 µM (inactive)	77.8 µM (inactive)	> 100 µM (inactive)	> 100 µM (inactive)	> 100 µM (inactive)	> 100 µM (inactive)	> 100 µM (inactive)	> 100 µM (inactive)
Brc1ccc2c(-c3nc(-c4c[nH]c5ccccc45)cs3)c[nH]c2c1	16.8	51.6 µM (inactive)	13.2 µM (inactive)	12.1 µM (inactive)	37.4 µM (inactive)	> 56.8 µM (inactive)	28.8 µM (inactive)	22.7 µM (inactive)	41.9 µM (inactive)	30.9 µM (inactive)	12.7 µM (inactive)	43.1 µM (inactive)	> 100 µM (inactive)	39 µM (inactive)	> 61.2 µM (inactive)	26.7 µM (inactive)	13.1 µM (inactive)	> 45.8 µM (inactive)	20.3 µM (inactive)	27 µM (inactive)
c1cnc2c(c1)ccc1cccnc12	3.12	4.02 µM (inactive)	1.02 µM (active)	2.67 µM (inactive)	13.6 µM (inactive)	4.07 µM (inactive)	3.66 µM (inactive)	12.6 µM (inactive)	8.57 µM (inactive)	3.18 µM (inactive)	3.88 µM (inactive)	8.91 µM (inactive)	> 36.3 µM (inactive)	2.05 µM (inactive)	> 28.4 µM (inactive)	2.86 µM (inactive)	3.67 µM (inactive)	5.83 µM (inactive)	3.52 µM (inactive)	2.37 µM (inactive)
COc1cc(/C=C\c2nnc(/C=C\c3ccc(O)c(OC)c3)s2)ccc1O	1.49	2.11 µM (inactive)	1.24 µM (inactive)	1.98 µM (inactive)	2.33 µM (inactive)	4.06 µM (inactive)	0.69 µM (active)	2.27 µM (inactive)	4.58 µM (inactive)	4.62 µM (inactive)	4.89 µM (inactive)	4.79 µM (inactive)	3.01 µM (inactive)	7.28 µM (inactive)	3.61 µM (inactive)	1.74 µM (inactive)	1.77 µM (inactive)	5.65 µM (inactive)	3.48 µM (inactive)	1.6 µM (inactive)
C=CCNC1=C2C[C@@H](C)C[C@@H](OC)[C@@H](OC(=O)CCCN)[C@H](C)/C=C(\C)[C@@H](OC(N)=O)[C@H](OC)/C=C\C=C(/C)C(=O)NC(=CC1=O)C2=O	19.4	9.38 µM (inactive)	6.59 µM (inactive)	14.3 µM (inactive)	10.4 µM (inactive)	13.2 µM (inactive)	6.98 µM (inactive)	20.5 µM (inactive)	15.8 µM (inactive)	19.8 µM (inactive)	16.7 µM (inactive)	14.7 µM (inactive)	20.9 µM (inactive)	17.1 µM (inactive)	15.9 µM (inactive)	14 µM (inactive)	9.16 µM (inactive)	6.24 µM (inactive)	15.9 µM (inactive)	> 100 µM (inactive)
